Results on six compounds are retold here after patent US5059607A, “Imidazolyl benzisoquinolines useful as 5-HT3 receptor antagonists” (Ono-Pharmaceutical Co., Ltd., priority 1989, dated 1991).

Structures can show the parent of a compound that is named as a salt. Where two headings read alike, the source gives them in different places.

One may read the LD50 as the dose at which mortality reaches 50%.

One data set concerns the target T1, 5-HT3 receptor (Rattus norvegicus, UniProt P35563).
T1 construct: 5-HT3 receptor in vivo in rats; from tissue; host or cells: whole anesthetized male Wistar rat (in vivo; endogenous receptor, no preparation isolated)
T1 sequence (P35563 24-483): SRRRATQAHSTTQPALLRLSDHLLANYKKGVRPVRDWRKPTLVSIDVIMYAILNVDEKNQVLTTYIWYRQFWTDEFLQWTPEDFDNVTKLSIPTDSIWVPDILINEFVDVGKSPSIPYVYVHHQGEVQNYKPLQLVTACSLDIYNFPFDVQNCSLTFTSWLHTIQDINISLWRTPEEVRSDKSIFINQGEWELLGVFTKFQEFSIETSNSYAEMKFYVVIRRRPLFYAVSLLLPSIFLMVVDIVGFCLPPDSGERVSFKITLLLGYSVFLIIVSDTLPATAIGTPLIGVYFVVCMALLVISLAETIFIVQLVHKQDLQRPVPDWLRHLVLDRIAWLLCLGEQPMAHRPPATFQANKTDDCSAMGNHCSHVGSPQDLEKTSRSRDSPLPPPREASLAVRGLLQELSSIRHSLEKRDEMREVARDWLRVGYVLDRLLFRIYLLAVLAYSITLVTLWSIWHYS
The data set is described as follows: Antagonistic activity against 5-HT3 receptor in vivo in rats (suppression of 5-HT-induced reflex bradycardia). Conditions: urethane-anesthetized male Wister rat. The method, then:
Male Wister rat was urethane-anesthetized and fixed. Cannulas were inserted in the carotid artery and in the thigh vein as used for the recording of blood pressure and heart beat, and for the administration of the test compounds, respectively.
Several amounts of a compound of the present invention were administered from the vein or to the duodenum. 5-HT was administered rapidly to the vein, 2 mins. after administration of the compound of the present invention.

Data set [1] can be described thus: Acute toxicity (LD50) in mice. The settings on record: mouse, in vivo.
[2] abbreviates: iv, 5-HT i.v. 2 mins after compound, read-out: IC50 i.v. (antagonistic activity against 5-HT3 receptor in vivo in rats).

`COc1cc2ccccc2c2c(=O)n(Cc3nc[nH]c3C)ccc12.Cl` [1(a), 2-(5-methylimidazol-4-ylmethyl)-5-methoxy-1,2-dihydrobenz[1,2-h]isoquinolin-1-one hydrochloride]: on 5-HT3 receptor (setting [2]), the ED50 came to 2.4 µg/kg.
Still for that read-out and setting: for `Cc1[nH]cnc1Cn1ccc2c(O)cc3ccccc3c2c1=O.Cl` [Example 1(f), 2-(5-methylimidazol-4-ylmethyl)-5-hydroxy-1,2-dihydrobenz[1,2-h]isoquinolin-1-one hydrochloride] the value was 0.62 µg/kg; for `Cc1[nH]cnc1Cn1ccc2cc(C)c3ccccc3c2c1=O.Cl` [1(d), 2-(5-methylimidazol-4-ylmethyl)-6-methyl-1,2-dihydrobenz[1,2-h]isoquinolin-1-one hydrochloride], 0.89 µg/kg.
Regarding `Cc1[nH]cnc1Cn1ccc2ccc3ccccc3c2c1=O.Cl` [Example 1, 2-(5-methylimidazol-4-yl-methyl)-1,2-dihydrobenz[1,2-h]isoquinolin-1-one hydrochloride], the ED50 at 5-HT3 receptor (i.d. (to the duodenum), read-out: ID50 i.d. (antagonistic activity against 5-HT3 receptor in vivo in rats)) amounted to 7.5 µg/kg; at 5-HT3 receptor (setting [2]), 0.29 µg/kg. For the same compound, the 50% lethal dose (LD50) in data set [1] (intravenous administration, read-out: acute toxicity (LD50), intravenous) is 94000 µg/kg; in data set [1] (oral administration, read-out: acute toxicity (LD50), oral), more than 800000 µg/kg.
With `Cc1[nH]cnc1Cn1ccc2cc(Br)c3ccccc3c2c1=O.Cl` [1(g), 2-(5-methylimidazol-4-ylmethyl)-6-bromo-1,2-dihydrobenz[1,2-h]isoquinolin-1-one hydrochloride], the ED50 at 5-HT3 receptor (setting [2]) was found to be 5.87 µg/kg.
Same read-out and setting: for `Cc1[nH]cnc1Cn1ccc2c(C)cc3ccccc3c2c1=O` [1(e), 2-(5-methylimidazol-4-ylmethyl)-5-methyl-1,2-dihydrobenz[1,2-h]isoqionolin-1-one hydrochloride] the value was 1.19 µg/kg.
